pKd: −log10 of the molar value.

The test concerns the target α7 nAChR subtype (Rattus norvegicus, UniProt Q05941). The format is binding.

Sequence of α7 nAChR subtype (Q05941 23-502 limits assumed): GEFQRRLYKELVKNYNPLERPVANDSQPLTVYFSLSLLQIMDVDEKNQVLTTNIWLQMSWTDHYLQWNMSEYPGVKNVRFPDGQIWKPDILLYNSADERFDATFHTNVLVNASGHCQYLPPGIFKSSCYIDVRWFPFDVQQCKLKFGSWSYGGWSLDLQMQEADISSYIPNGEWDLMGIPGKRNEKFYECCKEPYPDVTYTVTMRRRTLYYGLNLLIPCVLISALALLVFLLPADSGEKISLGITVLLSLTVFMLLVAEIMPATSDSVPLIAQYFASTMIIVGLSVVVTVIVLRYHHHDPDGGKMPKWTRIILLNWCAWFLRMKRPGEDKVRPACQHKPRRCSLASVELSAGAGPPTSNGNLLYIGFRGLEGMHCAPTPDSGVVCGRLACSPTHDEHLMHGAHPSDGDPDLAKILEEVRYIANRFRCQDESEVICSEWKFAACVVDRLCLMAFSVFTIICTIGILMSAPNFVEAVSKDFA

The pKd is the Kd on a negative log10 scale, so that one unit is a factor of ten. High values mean a low Kd, low ones a high Kd. As to ^125I-α—Bungarotoxin [^125I-α-BTX], the negative-log Kd (pKd) was 8.78.
